{"source": "paper PMC8879660", "about": "“Characterizing the Physicochemical Properties of Two Weakly Basic Drugs and the Precipitates Obtained from Biorelevant Media” (Pharmaceutics, 2022)", "key": {"[1]": {"test": "Equilibrium solubility / dissolution of precipitates and API in pH 6.5 FaSSIF buffer", "assay_type": "physicochemical", "settings": "FaSSIF buffer pH 6.5, 37 °C", "method": "To estimate the solution properties of different crystal structures in near neutral or slightly acidic environments, the equilibrium solubility of various precipitates and API in the pH 6.5 FaSSIF buffer medium (FaB) was investigated. An excess sample was added to the medium, and the test of equilibrium solubility was performed with the stirring rate of 200 revolutions per minute (rpm) under 37 °C for 24 h. Sample concentration was detected every minute by Pion’s in situ fiber-optic UV dissolution monitoring system. All measurements were performed three times."}, "[2]": {"test": "Intrinsic dissolution rate (disc method, Mini-IDR)", "assay_type": "physicochemical", "settings": "same dissolution medium, 37 °C, 200 rpm", "method": "The intrinsic dissolution rate (IDR) of compounds with different crystal structures was measured by the disc method based on the literature. About 10 mg of powder was loaded into the Mini-IDR compression system (Pion Inc., Billerica, MA, USA) and compressed at 100 psi (rivaroxaban) and 200 psi (Drug-A) for 1 min to obtain the miniaturized discs with a surface area of 0.071 cm^2. The discs were inserted into stirrer-die assembly and placed into flat-bottomed glass vials for dissolution analysis. At the start of the experiments, the magnetic stirrer was immediately switched on with the speed of 200 rpm, and then 10 mL of preheated (37 °C) dissolution media (FaSSIF buffer medium, FeSSIF buffer medium, FaSSIF medium and FeSSIF medium) were added into the vials at a constant temperature. The concentration was determined directly in the dissolution media every 30 s using an in situ UV probe for 2 h. All experiments were performed in triplicate, and the IDR was calculated with the following equation [30]:(1) IDR=V×dc/dt×1/A where V is the volume of medium in the glass vial; dc/dt is the slope of the straight line from the dissolution profile; A is the surface area of the disc."}, "[3]": {"test": "Stirring PAMPA permeability assay of precipitates and API in different donor media", "assay_type": "in vitro ADME", "method": "In order to simulate the permeation of compounds in different crystal structures in the GI tract, the stirring PAMPA method (Pion Inc., Billerica, MA, USA) was used to assess the passive transcellular permeability. The donor and acceptor chambers representing the GI tract and systemic circulation were separated by the artificial membrane (PVDF, polyvinylidenfluoride, 0.45 μm, 0.78 cm^2). The membrane surface was coated with 20 μL of lipid, which was used to simulate the microenvironment of lipids in vivo. Then, 16 mL PBS/FaSSIF/FeSSIF medium with pH 5.0 was added into the donor chamber, and 16 mL sink buffer was added into the acceptor chamber. In order to simulate the redissolution progress of precipitate in the GI tract, a slight excess of crystalline powder was added into the donor chamber. Both chambers were stirred at 200 rpm at 37 °C, and the concentration of each chamber was detected by immersed UV-probes at 320 nm and 340 nm for rivaroxaban and Drug-A, respectively. The flux was defined as the amount of compound passing through the unit area perpendicular to its flow direction in unit time and was calculated by the following equation [31]:(2) J(t)=Ct2−Ct1/A(t2−t1)×V where J(t) is the flux of a compound; Ct is the concentration of compound at t; V is the solution volume of the donor chamber; A is the area of the artificial membrane. […]"}, "[4]": {"settings": "stated in Materials, source not given; cited from earlier work"}, "[5]": {"test": "Equilibrium solubility of API in different media", "assay_type": "physicochemical", "settings": "37 °C, 200 rpm", "method": "To select an appropriate method for the preparation of precipitates, the equilibrium solubility of model drugs was firstly investigated in various media, including pH 1.0 HCl solution, pH 5.0, pH 6.5, and pH 8.0 phosphate buffer solution (PBS), fasted state simulated intestinal fluid (FaSSIF, Fa), and fed-state simulated intestinal fluid (FeSSIF, Fe). The excess sample was added to the medium, and the test of equilibrium solubility was performed with the stirring rate of 200 revolutions per minute (rpm) under 37 °C for 24 h. Sample concentration was detected every minute by Pion’s in situ fiber-optic UV dissolution monitoring system (Pion Scientific Instruments, Billerica, MA, USA), a real-time online detector. All measurements were performed in triplicate."}}, "note": "Like-named read-outs stand apart in the source and are kept apart here."}
{"compound": "O=C(NC[C@H]1CN(c2ccc(N3CCOCC3=O)cc2)C(=O)O1)c1ccc(Cl)s1", "note": "[Rivaroxaban]", "values": [{"measurement": "Dissolved rate of precipitates compared with API", "setting": "[1]", "result": "higher than that of API"}, {"measurement": "Difference in equilibrium solubility between API and precipitates obtained from biorelevant media", "setting": "[1]; 24 h, precipitates from FaSSIF, 0.5 × FeSSIF, FeSSIF, 2 × FeSSIF", "result": "no statistical difference"}, {"measurement": "Influence of crystal structure (API vs precipitates) on intrinsic dissolution rate", "setting": "[2]", "result": "significant influence"}, {"measurement": "Permeability of API compared with precipitates", "setting": "[3]; FeSSIF in the donor chamber", "result": "larger than that of precipitates obtained from biorelevant media"}, {"measurement": "Permeability in donor chamber containing aqueous medium relative to donor chamber containing biorelevant medium", "setting": "[3]; donor pH 5.0 PBS vs biorelevant medium, 37 °C, 200 rpm", "result": "about 1.92 fold"}, {"measurement": "log p", "setting": "[4]", "result": 1.90}, {"measurement": "pKa", "setting": "[4]", "result": 13.6}, {"measurement": "solubility at 24 h", "setting": "[5]; FaSSIF, n = 3, read-out: Solubility of API, FaSSIF", "result": 6.17, "unit": "µg/mL"}, {"measurement": "solubility at 24 h", "setting": "[5]; FeSSIF, n = 3, read-out: Solubility of API, FeSSIF", "result": 10.6, "unit": "µg/mL"}, {"measurement": "solubility at 24 h", "setting": "[5]; pH 1.0 HCl solution, n = 3, read-out: Solubility of API, pH 1.0 HCl", "result": 6.84, "unit": "µg/mL"}, {"measurement": "solubility at 24 h", "setting": "[5]; pH 5.0 phosphate buffer solution (PBS), aqueous buffer, thermodynamic from solid, pH 5.0 PBS, n = 3, read-out: Solubility of API, pH 5.0 PBS", "result": 4.85, "unit": "µg/mL"}, {"measurement": "solubility at 24 h", "setting": "[5]; pH 6.5 phosphate buffer solution (PBS), pH 6.5 PBS, n = 3, read-out: Solubility of API, pH 6.5 PBS", "result": 5.85, "unit": "µg/mL"}, {"measurement": "solubility at 24 h", "setting": "[5]; pH 8.0 phosphate buffer solution (PBS), pH 8.0 PBS, n = 3, read-out: Solubility of API, pH 8.0 PBS", "result": 5.87, "unit": "µg/mL"}]}
